# Where two headings read alike, the source gives them in different places.
# Legend:
# human PDE4B3 = biological target: T1, human PDE4B3 (Homo sapiens, UniProt Q07343); assay: Inhibition of cAMP hydrolysis by recombinant human PDE4B3; format: biochemical; settings: Example 29
# T1 construct: made in house
# Method: (§1) PDE4 enzyme assays were carried out as described previously. Studies with recombinant PDE4 enzymes were carried out in the laboratory of Professor Marco Conti (Stanford University, Palo Alto, Calif.).
# rodent PDE4 = assay: Inhibition of rodent PDE4 (rolipram binding sites); settings: Table 4
# Method: IC50 values for inhibitor interaction with this site were calculated by nonlinear regression analysis of competition curves for unlabeled PDE4 inhibitors; Ki values were determined according to the method of Cheng and Prusoff (1973). […] Competition curves for the PDE4 inhibitors were subjected to nonlinear regression analysis and IC50 values with which the inhibitors bind to each of the binding sites was determined; K1 values were determined according to the method of Cheng and Prusoff (1973).
# [1] = Mouse liver microsome stability assay; format: in vitro ADME; settings: for half life, mouse liver microsomes: NADPH; for MLM t1/2: Table 16
# Method: (§2) A typical assay mixture contained either mouse or rat liver microsomes (0.5 mg of protein), […] potassium phosphate buffer (pH 7.4), 40 μM test compounds, 0.5 mM NADP+, 0.5 mM glucose-6-phosphate, 5 IU/mL glucose-6-phosphate dehydrogenase, 1 mg/mL diethylenetriaminepentaacetic acid (DETAPAC) and 5 mM MgCl2 in a final incubation volume of 0.1 mL. After 0, 10, 25, 40 and […], the incubations were stopped by the addition of 1 ml CH2Cl2/2-propanol (3:1 v:v). The mixture was centrifuged at 12,000×g for 1 min, and the organic layer was separated from the aqueous fraction. The organic fraction was evaporated with a stream of argon and the residue was taken up in methanol (200 μL) and injected into the HPLC system described above.
# (§3) Microsomal incubations (final volume 0.25 mL) with the SSRIs, dual PDE4 inhibitor/SSRIs or PDE4 inhibitor was done with an HPLC assay as described above. Diluted stocks of either mouse, human or rat liver microsomes (0.5 mg of protein), […] potassium phosphate buffer (pH 7.4), 0.5 mM NADI)^+, 0.5 mM glucose-6-phosphate, 5 IU/mL glucose-6-phosphate dehydrogenase, 0.6 mM DETAPAC, and 3 mM MgC12 were combined and placed on ice. For a metabolic stability assay, either vehicle or 40 μM test compound was added and the incubation was initiated at 37° C. with constant shaking. After 0, 10, 25, 40 and 60 min, the incubations were stopped by the addition of 1 mL CH2Cl2/2-propanol (3:1, v:v). After thorough mixing, the organic layer was separated from the aqueous portion by centrifugation at 12,000×g. The organic material was evaporated with a stream of argon. The residue was dissolved in methanol (200 μL) and the sample was analyzed by HPLC.
# human PDE4D3 = biological target: T2, human PDE4D3 (Homo sapiens, UniProt Q08499); assay: Inhibition of cAMP hydrolysis by recombinant human PDE4D3; format: biochemical
# T2 construct: made in house; host or cells: Cos 7 cells (construct and cells a gift from Dr. Conti, Stanford)
# Method: The PDE construct was transfected into Cos 7 cells in round culture dish (100×20 mm). The cells were then harvested and homogenized with lysis buffer. The crude homogenate was spun at maximum speed in a microfuge. The supernatant fluid was saved as an extract. […] The PDE construct and Cos 7 cells were a kind gift from Dr. Conti at the Stanford University School of Medicine.
# as §1
# [2] = Human liver microsome stability assay; format: in vitro ADME
# Method: as §3
# ICR mice = assay: Forced-swim test in ICR mice; format: in vivo, mouse
# Method: Forty male ICR mice, weighed 26.2±0.3 g, were housed in a temperature-controlled room (22-23° C.) and maintained on a 12-hour on 12-hour off light cycle (lights on at 6:00 AM). Water and food were freely available in the home cages. […] Saline containing the same percentage of DMSO was used as vehicle. The lower doses were tested followed by the larger doses 1 week later, when the mice were again randomly divided into four groups as described above. The forced-swim test (FST) was carried out as described previously. Mice were given a swimming pretest session, once a day for two successive days. Twenty-four hours after the last session, mice were injected vehicle or the lower dose of each test compound by the i.p. route 30 min prior to the FST. One week later, administration of the larger dose of each of the test compounds was repeated. During the pretest and test sessions, each mouse was placed for 6 min in a plastic cylinder (45 cm high×20 cm diameter), which was filled to a depth of 28 cm with water (23±1° C.). The duration of immobility, which was defined as floating in an upright position without additional activity other than that necessary for the animal to keep its head above water, was recorded.
# human PDE4A1 = biological target: T3, human PDE4A1 (Homo sapiens, UniProt P27815); assay: Inhibition of cAMP hydrolysis by recombinant human PDE4A1; format: biochemical
# T3 construct: made in house
# Method: as §1
# Balb/c mice = assay: Forced-swim test in Balb/c mice; format: in vivo, mouse; settings: i.p. 23, 5 and 1 hr prior; fluoxetine 10 mg/kg, 18k/l or 14 10 mg/kg, 21 1 mg/kg
# Method: The study was conducted according to a standard operation procedure and in accordance with all Federal regulations. Water and food were freely available in the home cages. […] Mice were given a swimming pretest session, once a day for two successive days. […] During the pretest and test sessions, each mouse was placed for […] in a plastic cylinder (45 cm high×20 cm diameter), which was filled to a depth of 28 cm with water (23±1° C.). The duration of immobility, which was defined as floating in an upright position without additional activity other than that necessary for the animal to keep its head above water, was recorded. For the subchronic administration tests, the animals were separated as above and vehicle or chemicals were given by i.p. administration 23, 5 and 1 hr before the FST. The subchronic experiments were done similar to the study described above except for the pretest training that was not carried out.
# Mice in the first session were treated with vehicle or the drugs acutely, whereas mice in the second sessions were treated subchronically, i.e., vehicle or drugs were given i.p. 23, 5, and 1 hr before the FST. The experiment was performed similar to Experiment 1 except for the pretest training, which was not carried out in the second session.
# GRK2 = biological target: T4, GRK2 (Homo sapiens, UniProt P25098); assay: High throughput KinaseGlo kinase assay; format: biochemical
# T4 construct: host or cells: gift of a collaborator (Professor Benovic, Thomas Jefferson University)
# T4 sequence (P25098 1-689): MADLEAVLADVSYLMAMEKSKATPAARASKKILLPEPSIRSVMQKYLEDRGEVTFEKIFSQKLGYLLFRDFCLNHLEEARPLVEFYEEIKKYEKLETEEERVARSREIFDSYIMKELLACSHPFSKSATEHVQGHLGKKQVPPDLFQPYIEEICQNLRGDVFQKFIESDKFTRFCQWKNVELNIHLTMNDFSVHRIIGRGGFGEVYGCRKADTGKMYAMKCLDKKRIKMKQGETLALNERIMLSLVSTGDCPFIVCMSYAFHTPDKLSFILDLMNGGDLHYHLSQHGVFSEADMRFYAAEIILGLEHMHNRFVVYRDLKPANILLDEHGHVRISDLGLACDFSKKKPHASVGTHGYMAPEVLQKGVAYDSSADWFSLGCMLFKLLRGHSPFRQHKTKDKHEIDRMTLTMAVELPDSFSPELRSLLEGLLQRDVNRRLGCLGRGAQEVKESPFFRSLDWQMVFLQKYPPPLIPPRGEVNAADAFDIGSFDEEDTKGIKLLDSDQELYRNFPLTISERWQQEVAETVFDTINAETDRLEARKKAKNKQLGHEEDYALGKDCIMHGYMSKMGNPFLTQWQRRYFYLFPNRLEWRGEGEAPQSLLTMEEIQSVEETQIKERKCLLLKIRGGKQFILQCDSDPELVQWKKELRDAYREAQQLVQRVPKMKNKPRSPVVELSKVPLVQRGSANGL
# From the text: A homogenous KinaseGlo assay was developed and conducted in a 96-well format. Briefly, the assay design allowed large numbers of tests to be done in a high throughput fashion using a 96-well plate reader system. The KinaseGlo assay involved transfer of γ-phosphate from [γ^33P]ATP by GRK2 to tubulin.
# [3] = Rat liver microsome stability assay; format: in vitro ADME
# Method: as §2
# as §3, with “After 0, 10, 25, 40 and 60 min, the incubations were stopped by the addition of 1 mL CH2Cl2/2-propanol (3:1, v:v). After thorough mixing, the organic layer was separated from the aqueous portion by centrifugation at 12,000×g. The organic material was evaporated with a stream of argon.” left out
# mice = assay: Morris water maze test; format: in vivo, mouse; settings: 3 mg/kg, compared to control mice
# Method: Compounds 19 and 115 were tested in a Morris water maze test. The escape latency (time to climb onto a hidden platform) for each mouse was recorded as a memory test. […] Compared to a group of control mice, compound 19 and 115 caused a 30% improvement in memory at 3 mg/kg. […] This is not completely unexpected as SSRIs often require repeated dosing to see a large and significant effect. […] Multiple dosing likely will increase the efficacy of the compounds tested.
# T2 sequence (Q08499 1-673 isoform Q08499-2): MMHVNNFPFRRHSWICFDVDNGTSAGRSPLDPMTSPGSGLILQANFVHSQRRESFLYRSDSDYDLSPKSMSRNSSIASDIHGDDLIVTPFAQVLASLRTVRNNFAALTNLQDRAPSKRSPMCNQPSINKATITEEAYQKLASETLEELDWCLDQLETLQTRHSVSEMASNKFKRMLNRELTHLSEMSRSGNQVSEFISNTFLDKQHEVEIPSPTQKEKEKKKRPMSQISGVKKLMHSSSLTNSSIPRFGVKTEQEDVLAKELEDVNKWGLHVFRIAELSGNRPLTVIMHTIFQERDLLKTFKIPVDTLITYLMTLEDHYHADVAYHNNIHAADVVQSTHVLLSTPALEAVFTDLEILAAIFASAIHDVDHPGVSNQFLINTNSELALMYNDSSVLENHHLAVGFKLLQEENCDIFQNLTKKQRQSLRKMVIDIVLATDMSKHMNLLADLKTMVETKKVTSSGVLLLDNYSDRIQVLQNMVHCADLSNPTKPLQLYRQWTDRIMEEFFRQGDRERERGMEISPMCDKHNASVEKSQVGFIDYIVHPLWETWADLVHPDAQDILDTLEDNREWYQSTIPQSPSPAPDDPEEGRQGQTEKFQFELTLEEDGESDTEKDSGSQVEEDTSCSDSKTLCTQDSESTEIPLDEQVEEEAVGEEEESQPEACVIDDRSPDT
# T3 sequence (P27815 1-647 isoform P27815-4): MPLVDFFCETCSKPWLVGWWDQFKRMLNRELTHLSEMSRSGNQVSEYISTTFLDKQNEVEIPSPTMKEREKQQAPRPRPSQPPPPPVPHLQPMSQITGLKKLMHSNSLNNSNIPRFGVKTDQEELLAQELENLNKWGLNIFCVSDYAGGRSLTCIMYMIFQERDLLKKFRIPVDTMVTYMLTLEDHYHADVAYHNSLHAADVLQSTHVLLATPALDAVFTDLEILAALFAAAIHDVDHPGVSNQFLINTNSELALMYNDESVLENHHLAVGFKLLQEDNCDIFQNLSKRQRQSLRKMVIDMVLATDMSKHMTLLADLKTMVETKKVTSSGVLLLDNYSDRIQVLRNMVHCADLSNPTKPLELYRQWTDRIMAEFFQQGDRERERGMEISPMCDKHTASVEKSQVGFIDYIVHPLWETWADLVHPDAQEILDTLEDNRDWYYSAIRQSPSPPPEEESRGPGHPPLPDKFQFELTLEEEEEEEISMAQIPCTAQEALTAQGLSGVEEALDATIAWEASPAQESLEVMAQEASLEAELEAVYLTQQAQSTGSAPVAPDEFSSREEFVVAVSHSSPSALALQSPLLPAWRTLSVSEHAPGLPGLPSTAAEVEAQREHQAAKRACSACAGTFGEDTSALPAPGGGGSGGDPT
# T1 sequence (Q07343 1-721 isoform Q07343-3): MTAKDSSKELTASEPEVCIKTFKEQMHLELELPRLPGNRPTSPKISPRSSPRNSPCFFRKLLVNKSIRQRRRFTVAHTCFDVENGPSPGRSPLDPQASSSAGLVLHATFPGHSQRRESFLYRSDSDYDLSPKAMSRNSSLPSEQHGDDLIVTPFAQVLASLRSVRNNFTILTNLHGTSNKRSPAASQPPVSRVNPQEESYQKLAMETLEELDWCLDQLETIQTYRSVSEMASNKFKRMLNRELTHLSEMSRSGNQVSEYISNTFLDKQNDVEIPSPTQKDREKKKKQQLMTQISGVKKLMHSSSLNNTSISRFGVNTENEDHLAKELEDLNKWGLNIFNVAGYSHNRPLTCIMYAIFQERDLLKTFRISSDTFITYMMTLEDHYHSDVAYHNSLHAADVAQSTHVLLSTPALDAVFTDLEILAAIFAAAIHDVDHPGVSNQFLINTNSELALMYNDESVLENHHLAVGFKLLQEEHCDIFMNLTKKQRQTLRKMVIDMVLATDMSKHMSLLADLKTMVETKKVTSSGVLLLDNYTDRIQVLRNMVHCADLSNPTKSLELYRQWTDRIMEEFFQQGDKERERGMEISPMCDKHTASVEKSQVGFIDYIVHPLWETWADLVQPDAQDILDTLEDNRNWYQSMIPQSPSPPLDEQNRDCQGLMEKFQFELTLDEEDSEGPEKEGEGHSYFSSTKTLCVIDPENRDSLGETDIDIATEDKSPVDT
structure (smiles),measurement,setting,value
"COc1ccc(F)cc1CCC1CCC(CCNCCCCCN2N=C(c3ccc(OC)c(OC)c3)C3CC=CCC3C2=O)O1 (racemic) [Compound 21, 4-(3,4-Dimethoxy-phenyl)-2-[5-(2-{5-[2-(5-fluoro-2-methoxy-phenyl)-ethyl]-thtrahydro-furan-2-yl}-ethylamino)-pentyl]-4,5,8,8a-tetrahydro-2H-phthalazin-1-one]",Ki,human PDE4B3,199 nM
same,pIC50,rodent PDE4,6.6
same,"half life, mouse liver microsomes",[1],2.57 h
same,MLM t1/2,[1],2.565 h
same,PDE4A1/PDE4D3 inhibitory selectivity ratio,human PDE4D3,< 500 fold
same,PDE4B3/PDE4D3 inhibitory selectivity ratio,human PDE4D3,100 fold
same,Ki,"human PDE4D3; Example 29, read-out: Ki, human PDE4D3",2 nM
same,metabolism in human liver microsomes,"[2]; NADPH, up to 60 min",not detectably metabolized
same,half-life at 40 μM,"[2]; human, liver microsomes, pH 7.4, Table 16, read-out: HLM t1/2",> 1 h
same,"immobility, forced-swim test, acute, higher dose","ICR mice; 3 mg/kg i.p., vs vehicle, P<0.05",significantly reduced immobility
same,"duration of immobility, forced-swim test, acute",ICR mice; 0.3 and 3 mg/kg i.p.,decreased duration of immobility in a dose-dependent manner
same,efficacy relative to fluoxetine on a molar basis,ICR mice; 21 0.5 μmol/kg vs fluoxetine 65 μmol/kg,129 fold
same,Ki,"human PDE4A1; Example 29, read-out: Ki, human PDE4A1",> 1000 nM
same,Ki,"human PDE4A1; Table 14, read-out: Human PDE4A1 Ki",< 1000 nM
same,"immobility, forced-swim test, subchronic",Balb/c mice,did not change immobility
NC1CC1c1cccnc1 (stereo not shown) [2-(pyridine-3-yl)cyclopropanamine],GRK2 stimulation or inhibition,GRK2,potent stimulators of GRK2
"CNCCC1CCC(CCc2cc(F)ccc2OC)O1 (stereo not shown) [Compound 24, (2-{5-[2-(5-Fluoro-2-methoxy-phenyl)-ethyl]-tetrahydro-furan-2-yl}-ethyl)-methyl-amine]","half life, mouse liver microsomes",[1],0.967 h
same,MLM t1/2,[1],0.975 h
same,"half life, rat liver microsomes",[3]; NADPH,2.15 h
same,RLM t1/2,[3]; Table 16,2.15 h
COc1ccc(F)cc1CCC1CCC(CCN)O1 (stereo not shown) [Compound 28],improvement in memory (escape latency),mice,~10%
same,GRK2 stimulation or inhibition,GRK2,potent stimulators of GRK2

# Source: patent US20130123253A1, “MODULATORS OF CENTRAL NERVOUS SYSTEM NEUROTRANSMITTERS” (HUMAN BIOMOLECULAR RESEARCH INSTITUTE, priority 2004, published 2013)
